In US12492208B2, “Crystal of pyrimidine compound” (TAIHO PHARMACEUTICAL CO., LTD., priority 2020, dated 2025):

Key:
[1] = target: T1, recombinant human HER2 exon 20 insertion mutant (A775_G776insYVMA) protein (Homo sapiens, UniProt P04626, INS775YVMA); assay: Inhibitory action (in vitro) against HER2 exon 20 insertion mutant phosphorylation activity; type: biochemical; conditions: pre-incubated 30 minutes, ATP 200 μM, 220 minutes; read-out: HER2ex20insYVMA inhibitory activity IC50 value
T1 construct: purchased SignalChem
Description: In order to determine conditions for a method of measuring the in vitro inhibitory activity of a compound against HER2 exon 20 insertion mutant phosphorylation activity, as in the case of HER2, ProfilerPro Peptide 22 was used as a substrate. A purified recombinant human HER2 exon 20 insertion mutant (A775_G776insYVMA) protein was purchased from SignalChem. Upon the measurement of the inhibitory activity of the compound, first, the compound (I) obtained according to the method in Synthesis Example 1 was diluted stepwise with dimethyl sulfoxide (DMSO). Subsequently, the HER2 exon 20 insertion mutant protein and the compound (I) in DMSO solution (final concentration of DMSO: 5%) were added into a buffer for the kinase reaction (13.5 mM Tris (pH 7.5), 2 mM dithiothreitol, and 0.009% Tween 20), and the obtained mixture was then pre-incubated at 25° C. for 30 minutes. […] Finally, using LabChip (registered trademark) EZ Reader II (PerkinElmer), an unphosphorylated substrate peptide(S) and a phosphorylated peptide (P) were separated and detected according to microchannel capillary electrophoresis. […]

NCI-N87 cells = assay: Growth inhibitory activity against HER2 expressing cell line (NCI-N87); type: cell-based; conditions: Homo sapiens, NCI-N87, 72 h; 3 days, CellTiter-Glo 2.0
Experimental: NCI-N87 cells as a HER2 overexpressing human stomach cancer cell line (American Type Culture Collection, Cat No. ATCC (registered trademark) CRL-5822) were suspended in an RPMI1640 medium (Wako Pure Chemical Industries, Ltd.) supplemented with 10% fetal bovine serum. Subsequently, the cell suspension was seeded in each well of a 96-well flat-bottom microplate, and was then cultured in a 5% carbon dioxide gas-containing culture vessel at 37° C. for 1 day. Thereafter, the compound (I) obtained according to the method in Synthesis Example 1 was dissolved in DMSO, and the compound was diluted to 1000 times the final concentration in DMSO. The compound (I) in the DMSO solution was diluted with the medium used in the suspension of the cells, and the obtained solution was then added to each well of the culture plate, so that the final concentration of DMSO became 0.1%. Regarding a control well, DMSO was diluted with the medium used in the suspension of the cells, and the obtained solution was then added to each well of the culture plate, so that the final concentration of DMSO became 0.1%. […] After completion of the culture for 3 days in the presence of the compound, the cells were counted using CellTiter-Glo 2.0 (manufactured by Promega) in accordance with the protocols recommended by Promega. The growth inhibition percentage was calculated according to the following equation. […]

[2] = system: Luciferase gene-introduced HER2 expressing cell line (NCI-N87-Luc); assay: Antitumor effect confirmation test (in vivo) on direct brain transplantation models; parameters: species or system nude mouse (BALB/cAJcl-nu/nu); conditions: 25 mg/kg/day oral, 21 days
Experimental: In order to confirm the antitumor effects of a test compound on direct brain transplantation models, NCI-N87-Luc, which was obtained by introducing a luciferase gene into NCI-N87 that was a human stomach cancer tumor cell line purchased from American Type Culture Collection, was used. The NCI-N87-Luc was added into a 10% fetal bovine serum (FBS)-containing RPMI-1640 medium (supplemented with 4.5 g/L glucose, 10 mM HEPES, and 1 mM sodium pyruvate) (Wako Pure Chemical Industries, Ltd.), and this cell line was then cultured in a 5% CO2 incubator at 37° C.
The NCI-N87-Luc cells were re-suspended in PBS in a concentration of 6.25×10^7 cells/mL. […]
As a reference of the amount of brain tumor, approximately 3 weeks after the transplantation, Total Flux (Photon/sec) was measured in all of the survival cases, using IVIS (PerkinElmer, Inc., model: Lumina II). […]
The value obtained by logarithmic transformation (Log 10) of the total flux on Day 22 in each group was analyzed by a significance test. […] A body weight change percentage (Body weight change; BWCn) from the body weight on the n^th day (BWn) was calculated according to the following equation: BWCn (%)=[(body weight on n^th day)−(body weight on grouping day)]/[(body weight on grouping day)]×100.

T1 sequence (P04626 with tags, fused parts or gaps INS775YVMA limits assumed): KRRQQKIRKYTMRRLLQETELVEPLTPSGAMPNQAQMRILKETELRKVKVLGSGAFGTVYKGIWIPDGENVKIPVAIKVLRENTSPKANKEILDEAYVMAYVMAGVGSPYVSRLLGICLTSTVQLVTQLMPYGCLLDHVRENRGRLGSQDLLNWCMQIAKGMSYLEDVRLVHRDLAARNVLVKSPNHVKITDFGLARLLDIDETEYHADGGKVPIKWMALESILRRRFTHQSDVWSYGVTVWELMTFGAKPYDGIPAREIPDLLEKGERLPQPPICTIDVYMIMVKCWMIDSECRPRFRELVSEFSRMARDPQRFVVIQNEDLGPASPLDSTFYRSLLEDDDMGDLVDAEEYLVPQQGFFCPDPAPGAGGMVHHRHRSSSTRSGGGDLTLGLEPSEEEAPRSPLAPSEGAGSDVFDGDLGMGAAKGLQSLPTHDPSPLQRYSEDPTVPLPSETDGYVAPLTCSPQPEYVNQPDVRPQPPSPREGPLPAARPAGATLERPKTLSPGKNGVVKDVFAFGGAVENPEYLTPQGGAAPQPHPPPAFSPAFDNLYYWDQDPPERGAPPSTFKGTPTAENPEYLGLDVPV

With `C=CC(=O)N1C[C@H](n2c(C#CC3CC3)c(C(=O)N[C@H](C)c3ccccc3)c3c(N)ncnc32)C[C@@H]1C` [compound (I), 7-((3R,5S)-1-acryloyl-5-methylpyrrolidin-3-yl)-4-amino-6-(cyclopropylethynyl)-N—((R)-1-phenylethyl)-7H-pyrrolo[2,3-d]pyrimidine-5-carboxamide] the IC50 [1] was under 0.3 nM, the IC50 (NCI-N87 cells) was 9.9 nM and the “body weight reduction of −20% or more” value ([2]; all mice) was “not observed”. The “Log 10 of the total flux on Day 22 versus control group” value ([2]; once a day, significance level (both sides) 5%) was “statistically significantly lower”.
